Assay results as given in patent publication US20200223889A1, “Bicyclic Compounds Capable of Binding to Melanocortin 4 Receptor” (Novo Nordisk A/S, priority 2017, published 2020).
Positions of bridges follow the written chain, without caps; N, C: chain ends. Non-standard residues stand in square brackets, D forms with d. Residues, ends and D or L forms follow the SMILES beside them. Thz = O=C(O)[C@@H]1CSCN1

Key:
[1] = target: T1, human MC4R (Homo sapiens, UniProt P32245); experiment: 125NDP-α-MSH competitive binding to membranes of BHK cells expressing human MC4 receptor (filtration assay)
T1 construct: expressed in transfected cells
Method in brief: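 Displacement of ^125NDP-α-MSH (apx. […] final) was measured by filtration after 2 h at 25 °C, using diluted membranes of stably transfected BHK cells in pH 7.0 HEPES buffer. Compounds spanned 1 μM to 0.001 nM; binding curves were analysed by non-linear regression.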

[2] = target: T1, human MC4R; experiment: Functional cAMP assay (CisBio HTRF) in BHK cells expressing human MC4R; format: cell-based; conditions: for MC1R/MC4R cAMP EC50 ratio: MC1R cAMP EC50 divided by MC4R cAMP EC50
Method in brief: (§1)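 Compound working solutions, 10-fold dilutions from 2 μM at twice final strength, in buffer containing 1 mM IBMX, were incubated 30 min at 25 °C with BHK cells stably carrying human MC4R or MC1R. Accumulated cAMP was then detected by competitive HTRF after 1 h at 25 °C and fitted by non-linear regression.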

[3] = In vivo acute food intake model (BioDAQ) in C57BL/6J male mice; conditions: single subcutaneous dose 1 mg/kg, cumulative food intake
Procedure: The MC4R system is central to appetite regulation and agonists are known inhibit food intake. In order to screen compounds in a relevant in vivo model, efficacy was assessed by determining the effect of the compound on reducing food intake acutely in mice.
All animal protocols were approved by an Institutional Animal Care and Use Committee and Ethical Review Committee of Novo Nordisk. Animals were housed according to Novo Nordisk rodent housing standards, and were given ad libitum access to food and water under controlled lighting (12 h:12 h light/dark cycle; lights off 11:00-23:00), temperature (23±2° C.) and relative humidity (50±20%) conditions. For each acute food intake study C57BL/6J male mice (25-30 grams body weight) were acclimated for two weeks to the appropriate light cycle and to single-housing (one mouse per cage) in cages linked to a BioDAQ automated food intake system (Research Diets Inc., New Brunswick, N.J. USA). The animals were also acclimated to new food (Research Diets 12450B, 10% kcal fat) during this time.
The BioDAQ is a computer automated scientific instrument for Biological Data Acquisition of food intake in rodents and measures food intake from each cage every 15 minutes. A total of 32 animals can be accommodated in the system per study, therefore, animals were randomized into 4 groups of n=8 for each study. […] Animals were fasted ˜4 hr prior to dosing. Vehicle (10 mM phosphate; 140 mM sodium chloride) or compound was dosed at a volume of 10 ml per kg subcutaneously approximately 20 minutes prior to the start of the dark cycle (compound chem no. and dosages are indicated in table 2 below). After dosing, food intake was recorded for approximately 24 hours.
The inhibitory effect of compounds on food intake was generally well-correlated with in vitro binding affinity on the human MC4 receptor and with plasma stability of the compound. Most studies were conducted as dose response studies with vehicle and the compound at 3 doses (0.3, 1 and 3 mg/kg). Some studies were done for the purpose of dose-range finding, while others were done to comparatively assess the effect of 3 compounds at the same dose. Maximal effects on food intake occurred within the first 1-5 hours post-dose. The comparative effect of compounds across studies on food intake was assessed by normalizing measurements as % effect on cumulative food intake after a single subcutaneous dose, relative to vehicle. Results are reported in Table 2 as % effect on food intake at 3 hours post dose.

[4] = target: T2, human MC1R (Homo sapiens, UniProt Q01726); experiment: Functional cAMP assay (CisBio HTRF) in BHK cells expressing human MC1R; format: cell-based
T2 construct: expressed in transfected cells
Method in brief: as §1

T1 sequence (P32245 whole entry): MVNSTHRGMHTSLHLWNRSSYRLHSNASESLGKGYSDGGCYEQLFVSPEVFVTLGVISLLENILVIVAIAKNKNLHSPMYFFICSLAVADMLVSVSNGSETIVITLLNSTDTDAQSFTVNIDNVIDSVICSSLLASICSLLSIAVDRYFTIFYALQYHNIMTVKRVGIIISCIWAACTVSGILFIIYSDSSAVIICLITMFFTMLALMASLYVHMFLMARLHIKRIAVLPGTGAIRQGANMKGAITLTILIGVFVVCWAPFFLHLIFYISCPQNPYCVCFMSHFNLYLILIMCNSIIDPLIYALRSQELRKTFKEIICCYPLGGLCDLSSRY
T2 sequence (Q01726 whole entry): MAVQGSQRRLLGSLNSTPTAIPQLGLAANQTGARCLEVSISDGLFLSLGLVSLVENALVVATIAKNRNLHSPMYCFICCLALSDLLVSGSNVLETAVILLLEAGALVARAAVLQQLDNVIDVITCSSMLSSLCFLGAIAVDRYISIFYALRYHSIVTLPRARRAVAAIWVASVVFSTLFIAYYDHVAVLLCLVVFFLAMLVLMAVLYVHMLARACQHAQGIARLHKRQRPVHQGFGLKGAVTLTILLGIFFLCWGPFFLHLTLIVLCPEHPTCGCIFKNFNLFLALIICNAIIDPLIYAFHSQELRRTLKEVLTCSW

Row | SMILES | Ki [1] | EC50 [2] | MC1R/MC4R cAMP EC50 ratio [2] | % Effect on food intake at 3 hours post dose, relative to vehicle [3] | EC50 [4]
1 | C[C@@H]1NC(=O)[C@H](CCCCN)NC(=O)[C@H](CCCCN)NC(=O)[C@H](C)NC(=O)[C@@H]2CSSC[C@H](NC(=O)[C@H](Cc3c[nH]c4ccccc34)NC1=O)C(=O)N1CSC[C@H]1C(=O)N[C@@H](Cc1c[nH]cn1)C(=O)N[C@H](Cc1ccccc1)C(=O)N[C@@H](Cc1c[nH]cn1)C(=O)N[C@@H](Cc1c[nH]c3ccccc13)C(=O)N2 [Chem. 110, c[c[Cys-THAZ-His-D-Phe-His-Trp- Cys]-Ala-Lys-Lys-Ala-Trp]] (cyclo(AKKAWC[Thz]H[dF]HWC); disulfide 6-12) | 0.09 nM | 0.05 nM | 1266 | −26 ± 15% | –
2 | C[C@@H]1NC(=O)[C@@H]2CSSC[C@H](NC(=O)[C@H](Cc3c[nH]c4ccccc34)NC(=O)[C@H](CCCNC(=N)N)NC(=O)[C@@H](Cc3ccccc3)NC(=O)[C@H](Cc3c[nH]cn3)NC1=O)C(=O)N[C@@H](C)C(=O)N[C@@H](Cc1c[nH]cn1)C(=O)N[C@H](Cc1ccccc1)C(=O)N[C@@H](CCCNC(=N)N)C(=O)N[C@@H](Cc1c[nH]c3ccccc13)C(=O)N2 [Chem. 111, c[c[Cys-Ala-His-D-Phe-Arg-Trp-Cys]- Ala-His-D-Phe-Arg-Trp]] | 0.04 nM | 0.01 nM | 31 | −63 ± 4% | 0.31 nM
